# Measurements from ChEMBL document CHEMBL1201862, “PubChem BioAssay data set” (2004).
# Activity calls are given as the source filed them.
# Columns and labels:
# [1] = molecular target: T1, Fructose-bisphosphate aldolase (Mycobacterium tuberculosis, UniProt P9WQA3); assay: Fluorescence-based biochemical high throughput dose response assay for inhibitors of the fructose-bisphosphate aldolase (FBA) of M. tuberculosis.; assay type: functional
# T1 sequence (P9WQA3 whole entry): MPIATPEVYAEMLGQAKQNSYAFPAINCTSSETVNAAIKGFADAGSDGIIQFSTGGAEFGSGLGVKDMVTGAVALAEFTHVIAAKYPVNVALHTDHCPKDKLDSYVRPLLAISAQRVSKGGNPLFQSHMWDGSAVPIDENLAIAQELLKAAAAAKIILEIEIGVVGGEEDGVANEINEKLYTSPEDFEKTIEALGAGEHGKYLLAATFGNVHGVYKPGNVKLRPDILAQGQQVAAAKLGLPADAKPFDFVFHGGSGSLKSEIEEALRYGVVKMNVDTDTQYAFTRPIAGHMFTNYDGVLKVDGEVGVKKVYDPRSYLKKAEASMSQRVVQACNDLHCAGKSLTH
# [2] = molecular target: Paired box protein Pax-8 (Homo sapiens, UniProt Q06710); assay: inhibitors of PAX8-driven TPO luciferase reporter, dose response, RMG-I cells, cherry-pick (AID 687027); assay type: functional, cell-based;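 also: luciferase reporter driven by Pax8 target thyroperoxidase promoter measured by SteadyGlo luminescence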
# [3] = NIH:OVCAR-3 ovarian cancer cell cytotoxicity, dose response, PAX8 inhibitor project, plate reader, dry powder samples (AID 743044); assay type: functional, cell-based
# [4] = cytotoxicity in OVCAR8 ovarian cancer cells, dose response, PAX8 project, cell-based, plate reader, dry powder samples (AID 743197); assay type: functional; conditions: OVCAR-8
# [5] = human group III sPLA2 inhibitors, dose response, biochemical, QFRET, IC50 (AID 743457);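 also: green fluorescence rise as the enzyme cleaves BODIPY PC-A2 in liposomes; potency for inhibition of the enzyme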
# [6] = molecular target: T2, Corticotropin-releasing factor receptor 2/Corticotropin-releasing factor-binding protein (Homo sapiens, UniProt P24387+Q13324); assay: activators of CRF receptor 2 with binding protein – uHTS hits, confirmation (AID 602473); assay type: functional; conditions: read-out: EC50_Mean
# T2 sequence (Q13324 whole entry): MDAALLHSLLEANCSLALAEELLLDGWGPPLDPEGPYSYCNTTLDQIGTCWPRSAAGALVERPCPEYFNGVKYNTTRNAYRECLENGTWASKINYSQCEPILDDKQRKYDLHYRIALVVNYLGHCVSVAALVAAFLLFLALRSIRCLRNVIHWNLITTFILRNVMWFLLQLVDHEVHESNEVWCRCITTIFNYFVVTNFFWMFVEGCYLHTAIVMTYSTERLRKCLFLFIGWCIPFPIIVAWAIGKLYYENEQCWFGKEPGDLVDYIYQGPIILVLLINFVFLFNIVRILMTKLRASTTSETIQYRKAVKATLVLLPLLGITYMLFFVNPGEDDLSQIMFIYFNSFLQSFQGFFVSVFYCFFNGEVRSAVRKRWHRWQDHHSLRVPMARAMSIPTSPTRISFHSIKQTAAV
# T2 sequence (P24387 whole entry): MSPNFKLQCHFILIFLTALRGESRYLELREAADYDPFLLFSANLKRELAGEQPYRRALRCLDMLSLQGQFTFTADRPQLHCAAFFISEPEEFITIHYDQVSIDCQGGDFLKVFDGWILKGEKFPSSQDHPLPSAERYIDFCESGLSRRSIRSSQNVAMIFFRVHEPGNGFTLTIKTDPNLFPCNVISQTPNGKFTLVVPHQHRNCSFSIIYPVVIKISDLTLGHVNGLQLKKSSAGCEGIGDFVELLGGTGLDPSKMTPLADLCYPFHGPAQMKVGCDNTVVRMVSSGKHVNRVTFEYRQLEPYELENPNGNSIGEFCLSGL
# [7] = molecular target: T3, DNA repair and recombination protein RAD54-like (Homo sapiens, UniProt Q92698); assay: inhibitors of human RAD54 branch migration, confirmation, biochemical, fluorescence, cherry-picked samples, dose series (AID 651657); assay type: functional
# T3 sequence (Q92698 whole entry): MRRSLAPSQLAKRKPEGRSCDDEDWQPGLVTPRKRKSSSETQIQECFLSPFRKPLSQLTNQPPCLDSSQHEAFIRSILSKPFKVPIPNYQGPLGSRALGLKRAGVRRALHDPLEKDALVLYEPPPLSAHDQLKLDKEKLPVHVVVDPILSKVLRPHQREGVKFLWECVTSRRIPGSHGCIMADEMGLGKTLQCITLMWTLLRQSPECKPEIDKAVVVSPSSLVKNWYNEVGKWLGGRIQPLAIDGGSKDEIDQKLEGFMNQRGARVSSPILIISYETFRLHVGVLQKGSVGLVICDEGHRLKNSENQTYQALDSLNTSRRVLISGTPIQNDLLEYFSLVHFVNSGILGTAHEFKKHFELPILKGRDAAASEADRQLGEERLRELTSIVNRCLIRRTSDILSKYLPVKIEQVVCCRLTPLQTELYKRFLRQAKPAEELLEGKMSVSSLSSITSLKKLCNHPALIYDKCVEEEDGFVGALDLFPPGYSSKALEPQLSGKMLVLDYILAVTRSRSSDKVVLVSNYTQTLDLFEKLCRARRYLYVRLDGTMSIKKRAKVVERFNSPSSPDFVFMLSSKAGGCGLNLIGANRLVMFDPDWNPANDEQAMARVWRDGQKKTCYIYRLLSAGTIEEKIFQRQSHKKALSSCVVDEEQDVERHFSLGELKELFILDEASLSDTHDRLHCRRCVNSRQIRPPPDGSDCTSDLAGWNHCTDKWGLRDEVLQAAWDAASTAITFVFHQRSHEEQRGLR
# [8] = molecular target: T4, Long-chain-fatty-acid--AMP ligase FadD28 (Mycobacterium tuberculosis, UniProt P9WQ59); assay: Fluorescence polarization aasay to screen for inhibitors that compete for the binding of FadD28 to a bisubstrate Measured in Biochemical System Using Plate Reader - 2147-01_Inhibitor_Dose_CherryPick_Activity.; assay type: functional, Mycobacterium tuberculosis H37Rv
# T4 sequence (P9WQ59 whole entry): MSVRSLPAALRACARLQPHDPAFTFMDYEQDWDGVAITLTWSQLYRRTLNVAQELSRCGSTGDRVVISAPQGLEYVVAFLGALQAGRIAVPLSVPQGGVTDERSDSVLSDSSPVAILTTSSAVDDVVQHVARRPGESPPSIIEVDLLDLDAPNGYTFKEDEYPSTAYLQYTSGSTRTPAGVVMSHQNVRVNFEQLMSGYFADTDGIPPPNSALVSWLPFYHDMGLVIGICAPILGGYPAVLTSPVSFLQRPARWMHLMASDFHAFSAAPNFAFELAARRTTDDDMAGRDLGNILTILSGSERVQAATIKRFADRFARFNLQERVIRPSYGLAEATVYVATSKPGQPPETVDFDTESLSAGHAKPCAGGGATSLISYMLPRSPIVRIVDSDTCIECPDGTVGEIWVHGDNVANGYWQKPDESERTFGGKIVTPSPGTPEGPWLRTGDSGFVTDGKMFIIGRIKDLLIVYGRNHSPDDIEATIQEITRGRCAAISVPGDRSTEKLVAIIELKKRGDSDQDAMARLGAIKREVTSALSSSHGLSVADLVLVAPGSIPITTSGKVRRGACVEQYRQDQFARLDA
# [9] = molecular target: T5, DNA repair protein RAD52 homolog (Homo sapiens, UniProt P43351); assay type: functional, biochemical
# T5 sequence (P43351 whole entry): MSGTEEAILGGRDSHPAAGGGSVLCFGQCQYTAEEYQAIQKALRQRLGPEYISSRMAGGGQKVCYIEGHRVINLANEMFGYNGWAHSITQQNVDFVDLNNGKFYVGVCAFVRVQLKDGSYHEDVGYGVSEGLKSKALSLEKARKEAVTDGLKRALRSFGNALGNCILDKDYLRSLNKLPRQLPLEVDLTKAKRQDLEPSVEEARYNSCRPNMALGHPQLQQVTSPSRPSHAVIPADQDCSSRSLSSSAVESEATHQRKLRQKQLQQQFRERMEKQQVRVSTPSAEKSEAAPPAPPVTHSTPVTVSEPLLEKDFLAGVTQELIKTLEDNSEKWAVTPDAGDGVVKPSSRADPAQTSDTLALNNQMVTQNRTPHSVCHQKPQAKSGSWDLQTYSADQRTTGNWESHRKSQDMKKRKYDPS
# [10] = inhibitors of firefly luciferase expression or activity, dose response, H4 neuroglioma cells, luminescence (AID 1990); assay type: functional, cell-based
# [11] = Luminescence Cell-Based Dose Response HTS to Identify Inhibitors of 5'UTR Stem-Loop Driven Prion Protein mRNA Translation in H4 Neuroglioblastoma Cells. [Related pubchem assays: 1827 (Project Summary), 1813 (Primary HTS)]; assay type: functional
# [12] = molecular target: Genome polyprotein (dengue virus type 2, UniProt P29990); assay: Dengue-2 NS5 methyltransferase inhibitors, primary screen, biochemical, confirmation dose response (AID 588689); assay type: functional
# [13] = molecular target: T6, Carboxy-terminal domain RNA polymerase II polypeptide A small phosphatase 1 (Homo sapiens, UniProt Q9GZU7); assay: inhibitors of CTDSP1, concentration-response testing, biochemical assay, absorbance-based, actives from ultra-high-throughput screening (AID 540297); assay type: functional
# T6 sequence (Q9GZU7 whole entry): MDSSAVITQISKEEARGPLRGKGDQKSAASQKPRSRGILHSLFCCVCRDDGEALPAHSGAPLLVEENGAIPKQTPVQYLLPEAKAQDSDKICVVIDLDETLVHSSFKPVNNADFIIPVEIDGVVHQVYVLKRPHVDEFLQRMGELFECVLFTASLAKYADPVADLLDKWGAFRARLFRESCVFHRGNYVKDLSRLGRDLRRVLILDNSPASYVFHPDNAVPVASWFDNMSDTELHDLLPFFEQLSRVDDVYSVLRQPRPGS
# [14] = HEK293T cytotoxicity, dose response, cytotoxicity control for miR-122 modulator project, cell-based, inhibitor set, cherry-pick, set 2 (AID 720697); assay type: functional
# [15] = intracellular Trypanosoma cruzi inhibitors in host cells – cell-based, plate reader, cherry-pick samples, set 3, dose response (AID 651818); assay type: functional;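 also: compounds incubated with infected cells for about four days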
# [16] = HEK293T cytotoxicity, dose response, cytotoxicity control for miR-122 modulator project, cell-based, activator set, cherry-pick (AID 720690); assay type: functional;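 also: HEK293T human cells scored for general mammalian cytotoxicity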
# [17] = nonselective inhibitors of cellular cAMP signaling, dose response, counter-screen for MC4R biased antagonist project, cell-based, TR-FRET cAMP detection (AID 602305); assay type: functional;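 also: U2OS cells stimulated with forskolin near its EC80 as the cAMP inducer; potency is for inhibition of forskolin-stimulated cAMP signaling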
# [18] = test system: Streptococcus; assay: Group A Streptococcus viability loss, dose response, counter-screen for streptokinase expression inhibitor project, luminescence, BacTiterGlo (AID 1915); assay type: functional, organism-based;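 also: potency for reduction of bacterial viability or growth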
# [19] = HeLa cell cytotoxicity, dose response, cytotoxicity control for MgcRacGAP inhibitor project (AID 624300); assay type: functional
# [20] = test system: Streptococcus sp. 'group A'; assay: growth inhibition of control SK(-) GAS strain, dose response, counter-screen for streptokinase expression inhibitor project, luminescence, kanamycin, BacTiterGlo, confirmation (AID 1900); assay type: functional, organism-based
# [21] = test system: INS1; assay: beta cell apoptosis inhibitors, cytokine rescue, dose response, luminescence, retest (AID 449756); assay type: functional, cell-based; conditions: ins1;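 also: cell death triggered by IL-1 beta plus TNF-alpha plus IFN-gamma mixture; protective hits raise ATP signal compared with cytokine alone wells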
# [22] = inhibitors of intracellular T. cruzi replication, confirmation, NIH3T3 host cells, beta-gal luminescence (AID 2044); assay type: functional, cell-based;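 also: intracellular parasites grown in NIH/3T3 mouse fibroblasts as host cells; luminescent beta-galactosidase reporter signal from transgenic T. cruzi replicating inside host cells; inhibitors lower the luminescence signal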
# [23] = inhibitors of SNCA 5'UTR-driven reporter translation, confirmation, H4 neuroglioma cells, luminescence (AID 1988); assay type: functional, cell-based
# [24] = cytotoxicity toward NIH3T3 fibroblasts, dose response, counter-screen, cell-based, ATP luminescence, mouse fibroblasts (AID 2010); assay type: functional;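 also: cells exposed to compound for about 90 hours before reading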
# [25] = IGROV1 ovarian cancer cell cytotoxicity, dose response, PAX8 inhibitor project, plate reader, dry powder samples (AID 743043); assay type: functional, cell-based; conditions: IGROV-1
# Paired box protein Pax-8, sequence (Q06710 whole entry): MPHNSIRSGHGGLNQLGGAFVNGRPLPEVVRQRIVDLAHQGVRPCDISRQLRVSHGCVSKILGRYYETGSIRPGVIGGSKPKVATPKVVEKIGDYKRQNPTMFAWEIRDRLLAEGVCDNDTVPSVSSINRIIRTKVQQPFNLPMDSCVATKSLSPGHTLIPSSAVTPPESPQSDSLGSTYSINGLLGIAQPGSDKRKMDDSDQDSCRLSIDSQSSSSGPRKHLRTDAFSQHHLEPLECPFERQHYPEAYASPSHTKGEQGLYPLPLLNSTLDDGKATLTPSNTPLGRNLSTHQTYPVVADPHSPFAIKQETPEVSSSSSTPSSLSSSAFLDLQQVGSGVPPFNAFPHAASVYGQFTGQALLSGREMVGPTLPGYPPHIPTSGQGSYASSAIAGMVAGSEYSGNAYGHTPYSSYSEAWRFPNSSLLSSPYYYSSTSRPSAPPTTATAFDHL
# Genome polyprotein, sequence (P29990 2492-3391 limits assumed): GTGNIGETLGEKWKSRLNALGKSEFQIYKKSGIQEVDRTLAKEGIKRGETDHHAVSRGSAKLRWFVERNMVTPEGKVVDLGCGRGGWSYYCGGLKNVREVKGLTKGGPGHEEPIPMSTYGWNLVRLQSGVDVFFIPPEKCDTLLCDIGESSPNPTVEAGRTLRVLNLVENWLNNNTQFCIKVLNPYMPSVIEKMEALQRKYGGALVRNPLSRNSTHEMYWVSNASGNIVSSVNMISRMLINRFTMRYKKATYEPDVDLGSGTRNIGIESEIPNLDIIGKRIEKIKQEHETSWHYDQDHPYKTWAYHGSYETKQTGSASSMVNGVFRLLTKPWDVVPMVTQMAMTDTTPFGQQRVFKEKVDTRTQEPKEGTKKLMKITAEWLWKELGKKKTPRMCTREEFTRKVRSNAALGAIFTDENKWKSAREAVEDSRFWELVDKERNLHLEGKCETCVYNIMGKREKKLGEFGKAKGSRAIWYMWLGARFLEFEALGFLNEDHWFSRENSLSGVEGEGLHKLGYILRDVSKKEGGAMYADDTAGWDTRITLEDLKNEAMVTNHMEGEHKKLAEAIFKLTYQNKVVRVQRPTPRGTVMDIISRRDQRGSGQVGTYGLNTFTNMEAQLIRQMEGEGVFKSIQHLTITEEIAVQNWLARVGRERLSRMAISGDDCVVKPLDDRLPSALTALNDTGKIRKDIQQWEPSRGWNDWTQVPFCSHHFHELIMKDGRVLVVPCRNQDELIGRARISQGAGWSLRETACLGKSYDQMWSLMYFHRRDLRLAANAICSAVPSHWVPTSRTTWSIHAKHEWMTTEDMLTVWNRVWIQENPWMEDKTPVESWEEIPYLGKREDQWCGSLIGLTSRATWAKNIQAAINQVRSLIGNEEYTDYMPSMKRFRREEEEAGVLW
smiles,measurement,setting,value
CC(C)(CNC(=O)c1cc(-c2ccc(Cl)s2)nc2ccccc12)N1CCOCC1,IC50,[1],1.59 µM (active)
Cc1noc(C)c1S(=O)(=O)Nc1ccc2c(c1)C(=O)N([C@H](C)CO)C[C@@H](C)[C@H](CN(C)C(=O)Nc1ccc(C(F)(F)F)cc1)OCCCC[C@@H](C)O2,AC50,[2],7.41 µM (active)
same,AC50,[3],26.7 µM (active)
same,AC50,[4],38.2 µM (active)
Cn1c(-c2cccs2)nc2ccccc21,IC50,[1],1.48 µM (active)
CC(C)CC(=O)NC(=S)NNC(=O)c1cccc([N+](=O)[O-])c1,IC50,[5],> 122 µM (inactive)
same,EC50,[6],> 53 µM (inactive)
CC1CCN(CCCNC(=O)c2cc3c(=O)n(C)c4ccccc4c3n2C)CC1,AC50,[7],27.8 µM (active)
NS(=O)(=O)c1ccc(CNC(=O)C(Cc2ccccc2)NS(=O)(=O)c2ccccc2F)cc1 (stereo unspecified),AC50,[8],39.3 µM (active)
CCCCCC1C(=O)N2C=C(c3ccccc3)c3ccccc3N2C1=O (stereo unspecified) [CINTAZONE],AC50,[8],67.3 µM (active)
COc1ccc(-c2cc(NC=O)c3ncc(-c4cccc(C(=O)NCCN(C)C)c4)n3c2)cc1,AC50,[7],9.93 µM (active)
same,AC50,[9],2.81 µM (active)
CC1(C)Oc2cc3oc(-c4cc(O)cc(O)c4)cc3cc2CC1O (stereo not drawn) [(+/-)-MORACIN P],EC50,[10],4.04 µM (inconclusive)
same,EC50,[11],11.1 µM (active)
same,AC50,[8],65.8 µM (active)
COc1ccc(Cl)c2sc(N(CCN(C)C)C(=O)C3=COCCO3)nc12,AC50,[7],38 µM (active)
O=C(O)CN1C(=O)/C(=C2\C(=O)N(Cc3ccccc3Cl)c3ccccc32)SC1=S,IC50,[12],28.2 µM (active)
same,IC50,[13],2.61 µM (active)
Cc1nc2ccccc2c2oc(C(=O)NCCN3CCCCC3C)cc12 (stereo unspecified),AC50,[7],35.2 µM (active)
C[C@@H]1CN([C@@H](C)CO)C(=O)c2cc(NC(=O)Nc3ccc(C(F)(F)F)cc3)ccc2O[C@@H]1CN(C)CC1CCCCC1,AC50,[14],4.35 µM (active)
same,AC50,[15],5.59 µM (active)
same,AC50,[16],19.1 µM (active)
Cc1nnsc1-c1nc2ccccc2[nH]1,IC50,[1],1.4 µM (active)
N=C(NCCCCCCNC(=N)NC(=N)Nc1ccc(Cl)cc1)NC(=N)Nc1ccc(Cl)cc1,IC50,[17],61.2 µM (inactive)
same,EC50,[18],2.09 µM (active)
same,EC50,[10],8.64 µM (active)
same,EC50,[11],18.2 µM (active)
same,CC50,[19],37.9 µM (active)
same,EC50,[20],0.517 µM (active)
same,AC50,[21],4.27 µM (active)
same,EC50,[22],0.332 µM (active)
same,EC50,[23],9.88 µM (active)
same,EC50,[24],7.82 µM (active)
CCCCN=C(S)N(CCN(CC)CC)Cc1cc2cc3c(cc2nc1O)OCO3,IC50,[1],2.44 µM (active)
C[C@H](O)C#Cc1cnc2c(c1)C(=O)N([C@H](C)CO)C[C@@H](C)[C@@H](CN(C)Cc1ccc(-c3ccccc3)cc1)O2,AC50,[2],1.66 µM (active)
same,AC50,[25],25.6 µM (active)
